Laboratory results as given in patent publication US4752614A, “Pharmaceutical compositions of tellerium and selenium compounds for the induction of in vivo and in vitro production of cytokines” (Bar-Ilan University, priority 1987, dated 1988).
“And” between values parts separate entries of the source, which are not always exact repeats. Equal entries are not always repeated.

What was measured:
IL-2 [1] = assay: IL-2 activity (CTLD proliferation) of Con A supernatants of spleen cells from mice injected IP (Example 3); type: in vivo, Balb-c mice
Description: A solution of the compound of Example 1 was prepared as follows: 5 mg was placed in a volumetric flask to which was added 100 ml of a solution of 40% dimethyl sulfoxide (DMSO) and 60% phosphate buffer saline (PBS) solution resulting in a concentration of 10 μg/0.2 ml. If the solution becomes turbid, it is centrifuged at 2000 rpm for ten minutes and the clear supernatant portion is used.
The test animals were Balb-c, male, mice, 6 to 8 weeks of age. All injections were made intraperitoneally using 0.2 ml of the solution of the compound of Example 1 using 25 gauge 5/8" hypodermic needle.
The animals received the following injections:
Each of groups a, b, c and d consisted of 21 animals. The animals were sacrificed daily from 24 h to 7 days after injection.
On each day, spleen cells from three of the animals from each control group were pooled together and processed by passing the spleen cells through a 60 mesh stainless steel net in a 5 mm Petri dish containing PBS in order to separate the cells. The cells were collected and centrifuged at 1000 rpm for 10 minutes. The supernatant was discarded and the cells were treated for two minutes with 5 ml of hypotonic buffer (0.15M NH4 Cl, 0.01M KHCO3 dissolved in double distilled water, pH 7.2) to kill the erythrocytes. Thereafter, PBS was added to the cells and the cells were centrifuged for 10 minutes at 1000 rpm. The cells were washed twice with PBS and counted in a haemocytometer using trypan blue to test for viability. The cells were brought to a concentration of 10^7 cells/ml using enriched RPMI containing 10% fetal calf serum (Ser Lab, Sussex, England); 5×10^-5 M 2-mercaptoethanol and 3% of d-glutamine (Bio Lab Israel) (stock solution 2m M×1000 nonessential amino acids) (Bio Lab, Israel) (stock solution×100) and sodium pyruvate (Bio Lab, Israel) (stock solution 1m M×100).
An additional three animals from each of the experimental groups were sacrificed and each of the spleens was processed separately using the same procedure.
The cell mixture was divided into two groups.
(a) Cells at a concentration of 10^7 cells/ml enriched RPMI to which was added concanavalin-A (CON A) (DiFCO, Batch 352) 2 μg./ml. These cells were incubated in 5 mm Petri dishes (NUNC) for 24 hours at 37° C., 7.5% CO2. Supernatants were collected, centrifuged at 1,600 rpm for 10 minutes and stored at 4° C. until used. These supernatants were assayed for IL-2 and CSF activity.
Prior to incubation of the cells, samples were removed from culture plates and smears of the cultures were made by cytocentrifugation. Slides were stained with May-Grunwald-Giemsa (1:10) solution and evaluated morphologically. A radioactive thymidine assay was used to determine IL-2 activity.
1. Supernatants were tested for IL-2 activity by the proliferation of the IL-2 dependent cell line CTLD. The IL-2 assay is based on the growth dependence of these cultured T-cell lines on IL-2. T cells harvested from IL-2 dependent culture, washed and placed back in culture in the absence of IL-2 invariably die within 24 hr. By using tritiated thymidine incorporation (^3 H-TdR) as an index of cultured T-cell replication, the IL-2 microassay provides a highly reproducible and quantitive indication of the amount of IL-2 activity in the supernatant prepared hereinabove.
2. To assay a condition medium for IL-2 activity, a sample containing 5×10^4 CTLD cells, 10% fetal calf serum and 50% of supernatant in question, all were suspended in a final volume of 1 ml RPMI. Aliquots of 0.2 ml from each sample were placed in four replicate wells of 96 microwell tissue culture plates (NUNC). Conditioned medium was obtained from cultures of Charles River rat spleen cells stimulated with Con A that contained a known amount of IL-2 as a reference in all assays.
3. The microwells were incubated for 24 hr at 37 degrees C. after which 1 microcurie/well of ^3 H-methylthymidine was added. […]

IL-2 [2] = assay: IL-2 production by human mononuclear cells of normal donors and SLE patients (Example 20); type: cell-based
Description: Using the procedure of Example 4, human mononuclear cells were tested for their ability to produce IL-2 after induction with PHA or in unstimulated cells from normal donors and from patients suffering from systemic lupus erthyrematous. The IL-2 content was tested according to the procedure of Example 3 using the CTLD IL-2 dependent cell line.

IL-2 [3] = assay: IL-2 activity of supernatants of human mononuclear cells on CTLD cells (Example 8); type: cell-based; settings: 72 hours
human mononuclear cells = assay: Proliferation of human mononuclear cells (Example 19); type: cell-based
Description: Human mononuclear cells were obtained by layering heparinized blood over a Ficoll/Hypaque gradient. The mononuclear cells were resuspended in enriched RPMI, rinsed three times and brought to a concentrations of 5×10^5 cells/ml encriched RPMI. […] Aliquots of 0.2 ml of each sample were placed in wells of microplates (triplicates). Microplates were incubated for 72 hours at 37° C. after which they were labelled with H^3 methyl-thymidine 1 μCi/well for an additional 24 hours. Cells were then harvested with a cell harvester.

Cl[TeH]1(Cl)(Cl)OCCO1 [Example 1]
IL-2 activity (IL-2 [1]; 1 μg IP, day 1, individual mouse): 25,919 CPM and 34,326 CPM and 16,718 CPM | IL-2 activity (IL-2 [1]; 1 μg IP, day 2, individual mouse): 21,398 CPM and 22,050 CPM and 9,338 CPM | IL-2 activity (IL-2 [1]; 1 μg IP, day 3, individual mouse): 10,130 CPM and 13,235 CPM and 2,176 CPM | IL-2 activity (IL-2 [1]; 1 μg IP, day 4, individual mouse): 31,999 CPM and 14,226 CPM and 17,228 CPM | IL-2 activity (IL-2 [1]; 1 μg IP, day 6, individual mouse): 41,261 CPM and 80,314 CPM and 42,485 CPM | IL-2 activity (IL-2 [1]; 1 μg IP, day 7, individual mouse): 66,854 CPM and 58,094 CPM and 51,268 CPM | IL-2 activity (IL-2 [1]; 10 μg IP, day 1, individual mouse): 24,335 CPM and 21,193 CPM and 25,381 CPM | IL-2 activity (IL-2 [1]; 10 μg IP, day 2, individual mouse): 31,901 CPM and 36,390 CPM and 22,066 CPM | IL-2 activity (IL-2 [1]; 10 μg IP, day 3, individual mouse): 20,316 CPM and 18,288 CPM and 12,126 CPM | IL-2 activity (IL-2 [1]; 10 μg IP, day 4, individual mouse): 26,644 CPM and 18,051 CPM and 65,963 CPM | IL-2 activity (IL-2 [1]; 10 μg IP, day 6, individual mouse): 22,040 CPM and 74,043 CPM and 43,838 CPM | IL-2 activity (IL-2 [1]; 10 μg IP, day 7, individual mouse): 85,216 CPM and 6,299 CPM | IL-2 production (IL-2 [2]; SLE, PHA +, 5 μg 0.2 ml PBS): 6.3 CPM × 10^-3 and 8.2 CPM × 10^-3 and 4.1 CPM × 10^-3 | IL-2 production (IL-2 [2]; SLE, PHA +, 1:50 PBS): 24.2 CPM × 10^-3 and 28.1 CPM × 10^-3 and 23.8 CPM × 10^-3 | IL-2 production (IL-2 [2]; SLE, PHA +, 1:100 PBS): 19.7 CPM × 10^-3 and 24.0 CPM × 10^-3 and 20.2 CPM × 10^-3 | IL-2 production (IL-2 [2]; SLE, PHA +, 1:200 PBS): 15.4 CPM × 10^-3 and 18.6 CPM × 10^-3 and 16.8 CPM × 10^-3 | IL-2 production (IL-2 [2]; SLE, PHA -, 5 μg 0.2 ml PBS): 2.0 CPM × 10^-3 and 2.4 CPM × 10^-3 | IL-2 production (IL-2 [2]; SLE, PHA -, 1:100 PBS): 32.1 CPM × 10^-3 and 35.1 CPM × 10^-3 and 18.1 CPM × 10^-3 | IL-2 production (IL-2 [2]; normal, PHA +, 5 μg 0.2 ml PBS): 36.4 CPM × 10^-3 and 30.4 CPM × 10^-3 and 38.9 CPM × 10^-3 | IL-2 production (IL-2 [2]; normal, PHA +, 1:50 PBS): 48.2 CPM × 10^-3 and 38.9 CPM × 10^-3 and 53.5 CPM × 10^-3 | IL-2 production (IL-2 [2]; normal, PHA +, 1:100 PBS): 46.2 CPM × 10^-3 and 54.2 CPM × 10^-3 and 44.8 CPM × 10^-3 | IL-2 production (IL-2 [2]; normal, PHA +, 1:200 PBS): 38.6 CPM × 10^-3 and 49.8 CPM × 10^-3 and 38.3 CPM × 10^-3 | IL-2 production (IL-2 [2]; normal, PHA -, 5 μg 0.2 ml PBS): 2.3 CPM × 10^-3 and 2.1 CPM × 10^-3 | IL-2 production (IL-2 [2]; normal, PHA -, 1:50 PBS): 43.6 CPM × 10^-3 and 52.2 CPM × 10^-3 and 50.8 CPM × 10^-3 | IL-2 production (IL-2 [2]; normal, PHA -, 1:100 PBS): 38.4 CPM × 10^-3 and 50.3 CPM × 10^-3 and 46.1 CPM × 10^-3 | IL-2 production (IL-2 [2]; normal, PHA -, 1:200 PBS): 30.1 CPM × 10^-3 and 47.1 CPM × 10^-3 and 31.3 CPM × 10^-3 | IL-2 activity (IL-2 [3]; 1 ng): 11,000 Counts per minute | IL-2 activity (IL-2 [3]; 10 ng): 1,500 Counts per minute | IL-2 activity (IL-2 [3]; 1 μg): 250 Counts per minute | IL-2 activity (IL-2 [3]; 100 μg): 280 Counts per minute | proliferation of human mononuclear cells (human mononuclear cells; first part of table, 1 × 10^-3 μg/ml): 2553 and 2180 | proliferation of human mononuclear cells (human mononuclear cells; first part of table, 1 × 10^-4 μg/ml): 3838 and 2387 | proliferation of human mononuclear cells (human mononuclear cells; first part of table, 1 × 10^-5 μg/ml): 3218 and 2442 | proliferation of human mononuclear cells (human mononuclear cells; first part of table, 5 × 10^-1 μg/ml): 18515 and 33700 | proliferation of human mononuclear cells (human mononuclear cells; second part of table, 1 μg/ml): 6000 and 5600 | proliferation of human mononuclear cells (human mononuclear cells; second part of table, 5 μg/ml): 5008 and 5182 | proliferation of human mononuclear cells (human mononuclear cells; second part of table, 1 × 10^-1 μg/ml): 7037 and 10382 | proliferation of human mononuclear cells (human mononuclear cells; second part of table, 1 × 10^-2 μg/ml): 6898 and 5712 | proliferation of human mononuclear cells (human mononuclear cells; second part of table, 1 × 10^-3 μg/ml): 5800 and 6000 | proliferation of human mononuclear cells (human mononuclear cells; second part of table, 1 × 10^-4 μg/ml): 5513 and 6212 | proliferation of human mononuclear cells (human mononuclear cells; second part of table, 5 × 10^-1 μg/ml): 20488 and 13600 | proliferation of human mononuclear cells (human mononuclear cells; second part of table, 5 × 10^-2 μg/ml): 5520 and 5765
